“Also recorded” adds a separate entry of the source.
Experiments:
brain = test: administration of xenon (inhalation): cerebral perfusion and oxygen supply in the brain; type: in vivo
[1] = e.g. long-term ventilation, current state of knowledge, cited from earlier work

Q: Which cerebral perfusion (brain; administered xenon, available results) does the source give for `[Xe]` [xenon] here?
A: Its cerebral perfusion is “improvement in cerebral perfusion”.

Q: And the “oxygen supply in the brain” value (brain; administration of xenon or xenon-containing gases, in particular by inhalation)?
A: Its value is “increased; also recorded: improved”.

Q: What about the cerebral autoregulation (brain; preliminary results) of the same compound?
A: The cerebral autoregulation was “maintained or improved”.

Q: And the “vasodilator action, especially capillary vasodilator in the capillary vascular system” value (brain; preliminary results)?
A: The value was “acts as vasodilator”.

Q: And the side effects ([1]; prolonged administration)?
A: Its side effects is “no side effects”.

Q: What about the “accumulation in the body” value ([1]; use as medicament) of the same compound?
A: The value was “no accumulation”.

Q: What about the “metabolites formed in the body” value ([1]; use as medicament) of the same compound?
A: Its value is “no metabolites are formed”.

Reference: patent US7235264B2, “Cerebral protection with a gas comprising xenon” (Air Liquide Deutschland GmbH, priority 2002, dated 2007)
